Columns and labels:
Format in all cases: in vivo
[1] = system: barnyardgrass (Echinochloa crus-galli); assay: Test B flooded paddy test; conditions: Echinochloa crus-galli, 250 g ai/ha, Flood; 0 to 100 scale where 0 is no effect and 100 is complete control; read-out: Barnyardgrass plant response rating
How it was run: (§1)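 Visual ratings (0 none to 100 complete control) are relative to untreated plants, taken 13–15 d after treatment in a greenhouse. Test material went straight into floodwater standing 3 cm above the soil, kept constant, on plants at the 2-leaf stage.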

[2] = system: ducksalad (Heteranthera limosa); assay: Test B flooded paddy test; conditions: Heteranthera limosa, 250 g ai/ha, Flood; 0 to 100 scale where 0 is no effect and 100 is complete control; read-out: Ducksalad plant response rating
How it was run: as §1

[3] = system: sedge, umbrella (small-flower umbrella sedge, Cyperus difformis); assay: Test B flooded paddy test; conditions: Cyperus difformis, 250 g ai/ha, Flood; 0 to 100 scale where 0 is no effect and 100 is complete control; read-out: Sedge, Umbrella plant response rating
How it was run: as §1

rice (Oryra sativa) = assay: Test B flooded paddy test; conditions: Oryza sativa, 250 g ai/ha, Flood; 0 to 100 scale where 0 is no effect and 100 is complete control; read-out: Rice plant response rating
How it was run: as §1

[4] = system: giant foxtail (Setaria faberii); assay: Test A postemergence; conditions: Setaria faberi, post-emergence, 240 h
How it was run: (§2)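 Visual injury, scored on a 0–100 scale relative to untreated controls, was recorded about 10 d after application. Treatments were a preemergence soil spray over planted seeds or a postemergence spray on plants at the one- to two-leaf stage, 2 to 10 cm tall, all in loam soil–sand blend in the greenhouse.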

corn (Zea mays) = assay: Test A postemergence; conditions: Zea mays, post-emergence, 240 h
How it was run: as §2

[5] = system: barnyardgrass (Echinochloa crus-galli); assay: Test A postemergence; conditions: Echinochloa crus-galli, post-emergence, 240 h
How it was run: as §2

[6] = system: ragweed (common ragweed, Ambrosia elatior); assay: Test A postemergence; conditions: Ambrosia artemisiifolia, post-emergence, 240 h, 125 g ai/ha, postemergence, visual injury vs untreated controls after approx. 10 d; 0 = no effect, 100 = complete control; read-out: Ragweed plant response rating (0 to 100 scale)
How it was run: as §2

[7] = system: blackgrass (Alopecurus myosuroides); assay: Test A postemergence; conditions: Alopecurus myosuroides, post-emergence, 240 h
How it was run: as §2

[8] = system: wheat (Triticum aestivum); assay: Test A postemergence; conditions: Triticum aestivum, post-emergence, 240 h, 125 g ai/ha, postemergence, visual injury vs untreated controls after approx. 10 d; 0 = no effect, 100 = complete control; read-out: Wheat plant response rating (0 to 100 scale)
How it was run: as §2

[9] = system: ryegrass, Italian (Italian ryegrass, Lolium multiflorum); assay: Test A postemergence; conditions: Lolium multiflorum, post-emergence, 240 h, 125 g ai/ha, postemergence, visual injury vs untreated controls after approx. 10 d; 0 = no effect, 100 = complete control; read-out: Ryegrass, Italian plant response rating (0 to 100 scale)
How it was run: as §2

[10] = system: pigweed (Amaranthus retroflexus); assay: Test A postemergence; conditions: Amaranthus retroflexus, post-emergence, 240 h, 125 g ai/ha, postemergence, visual injury vs untreated controls after approx. 10 d; 0 = no effect, 100 = complete control; read-out: Pigweed plant response rating (0 to 100 scale)
How it was run: as §2

[11] = system: Galium (catchweed bedstraw, Galium aparine); assay: Test A postemergence; conditions: Galium, post-emergence, 240 h
How it was run: as §2

Kochia (Kochia scoparia) [12] = assay: Test A postemergence; conditions: Bassia scoparia, post-emergence, 240 h, Postemergence, 31 g ai/ha; visual injury after approx. 10 d; 0 to 100 scale, 0 no effect, 100 complete control; read-out: Plant response rating, Kochia
How it was run: as §2

[13] = system: giant foxtail (Setaria faberii); assay: Test A preemergence; conditions: Setaria faberi, pre-emergence, 240 h, 0 to 100 scale where 0 is no effect and 100 is complete control, read-out: Foxtail, Giant plant response rating
How it was run: as §2

[14] = system: barnyardgrass (Echinochloa crus-galli); assay: Test A preemergence; conditions: Echinochloa crus-galli, pre-emergence, 240 h, 0 to 100 scale where 0 is no effect and 100 is complete control, read-out: Barnyardgrass plant response rating
How it was run: as §2

[15] = system: ragweed (common ragweed, Ambrosia elatior); assay: Test A preemergence; conditions: Ambrosia artemisiifolia, pre-emergence, 240 h, 0 to 100 scale where 0 is no effect and 100 is complete control, read-out: Ragweed plant response rating
How it was run: as §2

[16] = system: ryegrass, Italian (Italian ryegrass, Lolium multiflorum); assay: Test A preemergence; conditions: Lolium multiflorum, pre-emergence, 240 h, 0 to 100 scale where 0 is no effect and 100 is complete control, read-out: Ryegrass, Italian plant response rating
How it was run: as §2

[17] = system: pigweed (Amaranthus retroflexus); assay: Test A preemergence; conditions: Amaranthus retroflexus, pre-emergence, 240 h, 0 to 100 scale where 0 is no effect and 100 is complete control, read-out: Pigweed plant response rating
Kochia (Kochia scoparia) [18] = assay: Test A preemergence; conditions: Bassia scoparia, pre-emergence, 240 h, 0 to 100 scale where 0 is no effect and 100 is complete control, read-out: Kochia plant response rating
How it was run: as §2

[19] = 125 g ai/ha, preemergence, approx. 10 d

CON1CC[C@H](c2cccc(C(F)(F)F)c2)[C@@H](C(=O)Nc2ccc(F)c(F)c2F)C1=O [Compound 1170]
pest or weed control at 250 g/ha [1]: 30%
pest or weed control at 250 g/ha [2]: 40%
pest or weed control at 250 g/ha [3]: 0%
pest or weed control at 250 g/ha (rice (Oryra sativa)): 0%
pest or weed control at 125 g/ha ([4]; 125 g ai/ha, postemergence, visual injury vs untreated controls after approx. 10 d, 0 = no effect, 100 = complete control, read-out: Foxtail, Giant plant response rating (0 to 100 scale)): 60%
pest or weed control at 31 g/ha ([4]; Postemergence, 31 g ai/ha, visual injury after approx. 10 d, 0 to 100 scale, 0 no effect, 100 complete control, read-out: Plant response rating, Foxtail, Giant): 0%
plant injury at 125 g/ha (corn (Zea mays); 125 g ai/ha, postemergence, visual injury vs untreated controls after approx. 10 d, 0 = no effect, 100 = complete control, read-out: Corn plant response rating (0 to 100 scale)): 0%
Corn plant response rating (crop injury, 0 = no effect, 100 = complete kill) at 31 g/ha (corn (Zea mays); Postemergence, 31 g ai/ha, visual injury after approx. 10 d, 0 to 100 scale, 0 no effect, 100 complete control): 0%
pest or weed control at 125 g/ha ([5]; 125 g ai/ha, postemergence, visual injury vs untreated controls after approx. 10 d, 0 = no effect, 100 = complete control, read-out: Barnyardgrass plant response rating (0 to 100 scale)): 60%
pest or weed control at 31 g/ha ([5]; Postemergence, 31 g ai/ha, visual injury after approx. 10 d, 0 to 100 scale, 0 no effect, 100 complete control, read-out: Plant response rating, Barnyardgrass): 0%
pest or weed control at 125 g/ha [6]: 0%
pest or weed control at 125 g/ha ([7]; 125 g ai/ha, postemergence, visual injury vs untreated controls after approx. 10 d, 0 = no effect, 100 = complete control, read-out: Blackgrass plant response rating (0 to 100 scale)): 20%
pest or weed control at 31 g/ha ([7]; Postemergence, 31 g ai/ha, visual injury after approx. 10 d, 0 to 100 scale, 0 no effect, 100 complete control, read-out: Plant response rating, Blackgrass): 0%
plant injury at 125 g/ha [8]: 0%
pest or weed control at 125 g/ha [9]: 0%
pest or weed control at 125 g/ha [10]: 0%
pest or weed control at 125 g/ha ([11]; 125 g ai/ha, postemergence, visual injury vs untreated controls after approx. 10 d, 0 = no effect, 100 = complete control, read-out: Galium plant response rating (0 to 100 scale)): 30%
pest or weed control at 31 g/ha ([11]; Postemergence, 31 g ai/ha, visual injury after approx. 10 d, 0 to 100 scale, 0 no effect, 100 complete control, read-out: Plant response rating, Galium): 20%
pest or weed control at 31 g/ha (Kochia (Kochia scoparia) [12]): 0%
pest or weed control at 31 g/ha ([13]; 31 g ai/ha, Preemergence): 0%
pest or weed control at 125 g/ha [13, 19]: 70%
pest or weed control at 31 g/ha ([14]; 31 g ai/ha, Preemergence): 0%
pest or weed control at 125 g/ha [14, 19]: 40%
pest or weed control at 31 g/ha ([15]; 31 g ai/ha, Preemergence): 0%
pest or weed control at 125 g/ha [15, 19]: 0%
pest or weed control at 31 g/ha ([16]; 31 g ai/ha, Preemergence): 0%
pest or weed control at 125 g/ha [16, 19]: 0%
pest or weed control at 31 g/ha ([17]; 31 g ai/ha, Preemergence): 0%
pest or weed control at 125 g/ha [17, 19]: 0%
pest or weed control at 31 g/ha (Kochia (Kochia scoparia) [18]; 31 g ai/ha, Preemergence): 0%
pest or weed control at 125 g/ha (Kochia (Kochia scoparia) [18]; [19]): 0%

Reference: US12077503B2, “Substituted cyclic amides and their use as herbicides” (FMC CORPORATION, priority 2015, dated 2024)
